What was measured:
Format in all cases: in vivo
[1] = system: db/db mouse; experiment: Kidney function in the db/db mouse model of type 2 diabetes: urine albumin (ELISA), urinary creatinine (Cobas Integra), 24-hour metabolic caging; conditions: db/db mice, 50 mg/kg/day oral gavage; for albumin/creatinine ratio: vs db/db+V group
Protocol: Creatinine was determined using a Cobas Integra autoanalyzer. Excretion of urine albumin was measured by ELISA kit.
Urinary creatinine was determined using a Cobas Integra autoanalyzer.
Excretion of urine albumin was measured by ELISA kit.
The renoprotective effects of Urolithin A were assessed in a mouse model of type 2 diabetes (the db/db mouse).
A mouse model of diabetes was used endorsed by the Diabetic Complications Consortium (DiabComp/AMDCC), the db/db mouse model, which is obese and insulin resistant “type 2”.
Mice were purchased from The Jackson Laboratory (Stock No: 000642) in order to obtain sizeable cohorts to run groups in tandem, which is crucial for reliable testing of mitochondrial function. Eight to nine week-old male db/db mice (n=15 per group) received Urolithin A by oral gavage (50 mg/kg/day) for a duration of 10 weeks. Db/m (control) or db/db (diabetic) mice were randomized to the following treatments:
A suspension of 0.5% carboxymethylcellulose (CMC; Sigma #419303) was first prepared. Urolithin A (16.67 mg/ml) was prepared by dissolving in 0.5% CMC solution and left stirring at room temperature. Urolithin A was dosed at 50 mg/kg/day. The weights of the mice were used to calculate the dosage of Urolithin A to be administered to each mouse, based on weekly bodyweight measurements. Approximately 1001 of 0.5% CMC was given to mice daily in the vehicle groups.
At baseline, mid-point and one week prior to euthanasia, mice underwent metabolic caging for 24 hours to collect urine and to measure food and water intake. Body composition by EchoMRI was performed at baseline, mid-point and two weeks prior to euthanasia to determine fat mass and lean body mass. At baseline and week 9, an oral glucose tolerance test was performed to assess glucose handling. Fasting plasma glucose was measured using a glucose colorimetric assay kit (Cayman, Ann Arbor, USA) at baseline, 15 min and 60 min after glucose treatment. Blood pressure measurements were performed at week 10.
All analyses were performed by ANOVA followed by post hoc paired analysis using Tukey's least significant difference method, correcting for multiple comparisons. A value for p<0.05 was considered as statistically significant. A Z-score of 2 was used to exclude outliers.
One week prior to cull, 24-hour metabolic caging was performed to collect urine, and blood was collected from the submandibular vein. Urine and plasma creatinine was determined using the Cobas Integra autoanalyzer. Urine albumin was measured by ELISA (Bethyl, USA). Blood pressure was determined by tail cuff plethysmography.
Excretion of albumin in the urine over a 24-hour period was measured by ELISA kit (Bethyl). At the endpoint of the study, there was a significant increase in albuminuria in db/db mice when compared to db/m mice. […] Creatinine clearance was calculated from urine and plasma creatinine measured using the Creatinine plus ver.2 (CREP2) assay on a Cobas Integra 400 plus autoanalyzer (Roche Diagnostics). There was a decline in kidney function in db/db mice (Diabetic) as measured by an increase in albuminuria and reduced creatinine clearance at 18-19 weeks of age. Treatment of UA delayed the progression of albuminuria in the db/db mice.

[2] = system: db/db mouse; experiment: Urinary carnosine, anserine and S-adenosylmethionine, semi-quantitative, HILIC chromatography and ESI-orbitrap mass spectrometry, in db/db mice; conditions: 50 mg/kg/day oral gavage, 10 weeks, vs db/db+V group
Protocol: Urinary carnosine was determined in a semi-quantitative manner using cold methanol:water:chloroform (5:3:5 (v/v)) extraction to separate the polar metabolites and apolar metabolites. In addition, a protein layer remained in the middle between the two phases. The polar phase was dried overnight in a vacuum centrifuge at 4° C. and 5 mbar, and was dissolved in 60 μl 60% (v/v) acetonitrile:water prior to analysis. The protein layer was quantified with a bicinchoninic acid (BCA) assay (ThermoFisher Scientific) and used for later normalization of the metabolite concentrations. Two microliters of each sample were injected into a hydrophilic interaction chromatography (HILIC) analytical column. The separation was achieved by applying a linear solvent gradient. As mobile phase, solvent A was H2O with 10 mM ammonium acetate (NH4Ac) and 0.04% (v/v) ammonium hydroxide (NH4OH), pH ˜9.3, and solvent B was acetonitrile (ACN). The eluting metabolites, including carnosine, were analyzed with an orbitrap mass spectrometer (Orbitrap Fusion Lumos Tribrid, Thermo Scientific) equipped with a heated electrospray ionisation (H-ESI) source. […]
Urinary anserine was determined in a semi-quantitative manner using cold methanol:water:chloroform (5:3:5 (v/v)) extraction to separate the polar metabolites and apolar metabolites. […] The protein layer was quantified with a bicinchoninic acid (BCA) assay (ThermoFisher Scientific) and used for later normalization of the metabolite concentrations. […] The eluting metabolites, including anserine, were analyzed with an orbitrap mass spectrometer (Orbitrap Fusion Lumos Tribrid, Thermo Scientific) equipped with a heated electrospray ionization (H-ESI) source. […]
Urinary S-adenosylmethionine was determined in a semi-quantitative manner using cold methanol:water:chloroform (5:3:5 (v/v)) extraction to separate the polar metabolites and apolar metabolites. […] The protein layer was quantified with a bicinchoninic acid (BCA) assay (ThermoFisher Scientific) and used for later normalization of the metabolite concentrations. […]

[3] = system: db/db mouse; experiment: Muscle mass of tibialis anterior and quadriceps by weighing in db/db mice; conditions: 50 mg/kg/day oral gavage, 10 weeks, vs db/db+V group
Protocol: The muscle mass of the tibialis anterior was measured by weighing on a precision scale. […] The muscle mass of the quadriceps was measured by weighing on a precision scale. Mice were purchased from The Jackson Laboratory (Stock No: 000642) in order to obtain sizeable cohorts to run groups in tandem, which is crucial for reliable testing of mitochondrial function. Eight to nine week-old male db/db mice (n=15 per group) received Urolithin A by oral gavage (50 mg/kg/day) for a duration of 10 weeks. Db/m (control) or db/db (diabetic) mice were randomized to the following treatments: A suspension of 0.5% carboxymethylcellulose (CMC; Sigma #419303) was first prepared. Urolithin A (16.67 mg/ml) was prepared by dissolving in 0.5% CMC solution and left stirring at room temperature. Urolithin A was dosed at 50 mg/kg/day. The weights of the mice were used to calculate the dosage of Urolithin A to be administered to each mouse, based on weekly bodyweight measurements. Approximately 1001 of 0.5% CMC was given to mice daily in the vehicle groups. All analyses were performed by ANOVA followed by post hoc paired analysis using Tukey's least significant difference method, correcting for multiple comparisons. A value for p<0.05 was considered as statistically significant. […] Whole body composition including lean mass and fat mass were measured using EchoMRI at baseline, midpoint and endpoint. […]

[4] = system: db/db mouse; experiment: Femur bone mass by weighing in db/db mice; conditions: 50 mg/kg/day oral gavage, 10 week treatment, vs db/db+V group
Protocol: The bone femur mass was determined by weighing on a precision scale. Mice were purchased from The Jackson Laboratory (Stock No: 000642) in order to obtain sizeable cohorts to run groups in tandem, which is crucial for reliable testing of mitochondrial function. Eight to nine week-old male db/db mice (n=15 per group) received Urolithin A by oral gavage (50 mg/kg/day) for a duration of 10 weeks. Db/m (control) or db/db (diabetic) mice were randomized to the following treatments: A suspension of 0.5% carboxymethylcellulose (CMC; Sigma #419303) was first prepared. Urolithin A (16.67 mg/ml) was prepared by dissolving in 0.5% CMC solution and left stirring at room temperature. Urolithin A was dosed at 50 mg/kg/day. The weights of the mice were used to calculate the dosage of Urolithin A to be administered to each mouse, based on weekly bodyweight measurements. Approximately 1001 of 0.5% CMC was given to mice daily in the vehicle groups. All analyses were performed by ANOVA followed by post hoc paired analysis using Tukey's least significant difference method, correcting for multiple comparisons. A value for p<0.05 was considered as statistically significant. A Z-score of 2 was used to exclude outliers. Left and right femur bones were collected at the end of study, after 10 week treatment, and both femurs were cleaned and snap frozen, weighed and stored at −80° C.

[5] = system: db/db mouse; experiment: Whole body composition (lean mass) by EchoMRI in db/db mice; conditions: 50 mg/kg/day oral gavage, 10 weeks, vs db/db+V group
Protocol: The lean mass of muscles was measured using EchoMRI. Mice were purchased from The Jackson Laboratory (Stock No: 000642) in order to obtain sizeable cohorts to run groups in tandem, which is crucial for reliable testing of mitochondrial function. Eight to nine week-old male db/db mice (n=15 per group) received Urolithin A by oral gavage (50 mg/kg/day) for a duration of 10 weeks. Db/m (control) or db/db (diabetic) mice were randomized to the following treatments: A suspension of 0.5% carboxymethylcellulose (CMC; Sigma #419303) was first prepared. Urolithin A (16.67 mg/ml) was prepared by dissolving in 0.5% CMC solution and left stirring at room temperature. Urolithin A was dosed at 50 mg/kg/day. The weights of the mice were used to calculate the dosage of Urolithin A to be administered to each mouse, based on weekly bodyweight measurements. Approximately 1001 of 0.5% CMC was given to mice daily in the vehicle groups. At baseline, mid-point and one week prior to euthanasia, mice underwent metabolic caging for 24 hours to collect urine and to measure food and water intake. […] Fasting plasma glucose was measured using a glucose colorimetric assay kit (Cayman, Ann Arbor, USA) at baseline, 15 min and 60 min after glucose treatment. […] Whole body composition including lean mass and fat mass were measured using EchoMRI at baseline, midpoint and endpoint.

## O=c1oc2cc(O)ccc2c2ccc(O)cc12 [UA, 3,8-dihydroxyurolithin]
[1]; 10 weeks, vs vehicle-treated group
  urinary creatinine: higher
[1]; after 5 weeks of treatment (midpoint)
  albumin/creatinine ratio: significantly decreased
[1]; after 10 weeks of treatment (endpoint)
  albumin/creatinine ratio: significantly decreased
[1]; at midpoint (5 weeks)
  albuminuria (24-hour urine albumin excretion): did affect albuminuria
[1]; baseline to 10 weeks, vs vehicle-treated counterparts
  progression of albuminuria: significantly delayed
[2]
  levels of urinary S-adenosylmethionine (SAM): significantly increased
  levels of urinary anserine: significantly increased
  levels of urinary carnosine: significantly increased
[3]
  muscle mass of the quadriceps: significantly increased
  muscle mass of the tibialis anterior: significantly increased
[4]
  femur bone mass: significantly increased
[5]
  lean mass: significantly increased

Reference: US20250049754A1, “COMPOSITIONS COMPRISING UROLITHIN FOR TREATING MUSCLE DECLINE AND A KIDNEY DYSFUNCTION” (SOCIETE DES PRODUITS NESTLE S.A., priority 2021, published 2025)
